Reference: PMC10892041, “Vanadium Complexes with Thioanilide Derivatives of Amino Acids: Inhibition of Human Phosphatases and Specificity in Various Cell Models of Metabolic Disturbances” (Pharmaceuticals, 2024)
Where two headings read alike, the source gives them in different places.

Tests used:
[1] = biological target: T1, SHP2 (Homo sapiens, UniProt Q06124); assay: Inhibition of human recombinant tyrosine phosphatase SHP2 (DiFMUP fluorescence); assay type: biochemical; conditions: for Inhibition of SHP2, percentage of inhibition of the control: 1 µM, control solvent only, SD did not exceed 6%
T1 construct: purchased Sigma-Aldrich
T1 sequence (Q06124 1-593): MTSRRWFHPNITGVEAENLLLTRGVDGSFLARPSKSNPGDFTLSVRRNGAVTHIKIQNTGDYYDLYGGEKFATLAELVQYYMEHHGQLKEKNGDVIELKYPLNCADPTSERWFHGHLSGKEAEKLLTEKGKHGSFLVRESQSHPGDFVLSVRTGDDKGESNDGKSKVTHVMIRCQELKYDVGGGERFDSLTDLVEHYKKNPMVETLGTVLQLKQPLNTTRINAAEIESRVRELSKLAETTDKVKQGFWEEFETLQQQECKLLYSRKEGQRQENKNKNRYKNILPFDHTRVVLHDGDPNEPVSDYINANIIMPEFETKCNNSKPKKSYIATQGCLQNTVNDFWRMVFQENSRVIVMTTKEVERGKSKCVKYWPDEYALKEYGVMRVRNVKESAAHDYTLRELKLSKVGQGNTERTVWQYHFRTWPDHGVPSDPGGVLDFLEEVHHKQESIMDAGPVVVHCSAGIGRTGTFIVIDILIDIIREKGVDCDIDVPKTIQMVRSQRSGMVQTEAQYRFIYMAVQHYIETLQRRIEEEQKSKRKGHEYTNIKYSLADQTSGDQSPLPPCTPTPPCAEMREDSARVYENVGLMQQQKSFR
Experimental: (§1) To determine the ability of the tested compounds for inhibition tyrosine phosphatases, human recombinant proteins were used (Sigma-Aldrich). The reactions were performed in black opaque 384-well microplates (PerkinElmer, Waltham, MA, USA). An equal volume of phosphatase solution in a reaction buffer (25 mM of 3-(N-morpholino)propanesulfonic acid (MOPS), 50 mM NaCl, 1 mM dithiothreitol (DTT), and 0.05% Tween-20 (pH 7.0)) was added to the solution of the tested compound on microplate. These solutions were dispensed using an automated injector. The following final concentrations of the tested phosphatases were used: PTP1B 50 ng/mL, SHP1 400 ng/mL, SHP2 50 ng/mL, LAR 5 ng/mL, and PTPRA 100 ng/mL. After 10 min, a solution of phosphate 6,8-difluoro-4-methyl (DiFMUP; Thermo Fisher Scientific) was added until its final concentration was 0.1 mM. Samples were incubated for 20 miN at 23 °C, and then the measurements of fluorescence intensity (excitation 355 and emission […]) were performed on a multifunctional plate reader POLARstar Omega (BMG Labtech, Ortenberg, Germany). Assays were performed in triplicate. For the screening assays, the final concentration of the tested compounds was 1 µM. The results were expressed as percent inhibition of untreated control (enzyme with vehicle only) for the screening tests. […] IC50 were calculated using GraphPad Prism version 6.0 software (GraphPad Software, Boston, MA, USA).

[2] = biological target: T2, LAR (Homo sapiens, UniProt P10586); assay: Inhibition of human recombinant tyrosine phosphatase LAR (DiFMUP fluorescence); assay type: biochemical; conditions: for Inhibition of LAR, percentage of inhibition of the control: 1 µM, control solvent only, SD did not exceed 6%
T2 sequence (P10586 1352-1607 limits assumed): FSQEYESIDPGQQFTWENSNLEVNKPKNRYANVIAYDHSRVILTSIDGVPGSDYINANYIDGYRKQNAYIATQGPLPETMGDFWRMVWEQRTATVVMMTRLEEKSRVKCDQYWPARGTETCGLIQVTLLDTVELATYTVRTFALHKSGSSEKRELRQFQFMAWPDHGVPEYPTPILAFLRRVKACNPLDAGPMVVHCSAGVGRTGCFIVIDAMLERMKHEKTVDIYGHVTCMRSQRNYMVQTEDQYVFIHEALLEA
Experimental: as §1

[3] = biological target: T3, SHP1 (Homo sapiens, UniProt P29350); assay: Inhibition of human recombinant tyrosine phosphatase SHP1 (DiFMUP fluorescence); assay type: biochemical; conditions: for Inhibition of SHP1, percentage of inhibition of the control: 1 µM, control solvent only, SD did not exceed 6%
T3 construct: purchased Sigma-Aldrich
Experimental: as §1

[4] = biological target: PP2A (Homo sapiens, UniProt P67775); assay: Inhibition of human recombinant non-tyrosine phosphatase PP2A (DiFMUP); assay type: biochemical
Experimental: (§2) For the inhibition assay of non-tyrosine phosphatases, human recombinant proteins were used (Sigma-Aldrich). The reactions were performed in black opaque 384-well microplates (PerkinElmer). To the solution of the tested complexes, an equal volume of a test solution of phosphatase was added. CDC25A were diluted in reaction buffer to the final concentration of 400 ng/mL as for tyrosine phosphatases (described in the section above), and PPA2 (final 0.5 U/mL) was diluted in 50 mM Tris-HCl, 0.05% Tween-20, and 125 µg/mL protease-free bovine serum albumin (pH 7.0). These solutions were dispensed using an automated injector. After 10 min, a solution of phosphate 6,8-difluoro-4-methyl (DiFMUP; Thermo Fisher Scientific) was added for the PPA2 sample until the final concentration 0.1 mM. For CDC25A samples, 3-O-methylfluorescein phosphate for the final concentration of 0.2 mM was added. Samples were incubated for 180 min at 23 °C, and then the measurements of fluorescence intensity (excitation 355 and emission 560 nm) were performed on a multifunctional plate reader POLARstar Omega (BMG Labtech). Assays were performed in triplicate. The results were expressed as percent of inhibition of untreated control (enzyme with vehicle solvent only).

[5] = biological target: T4, PTP1B (Homo sapiens, UniProt P18031); assay: Inhibition of human recombinant tyrosine phosphatase PTP1B (DiFMUP fluorescence); assay type: biochemical; conditions: for Inhibition of PTP1B, percentage of inhibition of the control: 1 µM, control solvent only, SD did not exceed 6%
T4 construct: purchased Sigma-Aldrich
T4 sequence (P18031 1-435): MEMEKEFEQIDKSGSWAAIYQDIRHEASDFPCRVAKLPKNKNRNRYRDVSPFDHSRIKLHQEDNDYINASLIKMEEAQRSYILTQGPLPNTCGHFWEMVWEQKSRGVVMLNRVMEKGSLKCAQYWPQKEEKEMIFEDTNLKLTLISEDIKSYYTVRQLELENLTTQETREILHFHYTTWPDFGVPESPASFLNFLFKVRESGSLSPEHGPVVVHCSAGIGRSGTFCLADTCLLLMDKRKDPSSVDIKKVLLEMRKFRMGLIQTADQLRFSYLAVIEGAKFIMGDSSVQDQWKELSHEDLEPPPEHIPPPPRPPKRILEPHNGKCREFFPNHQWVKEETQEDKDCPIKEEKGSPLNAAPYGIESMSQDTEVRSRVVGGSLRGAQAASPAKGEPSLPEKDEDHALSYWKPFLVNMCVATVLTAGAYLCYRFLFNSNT
Experimental: as §1

[6] = test system: myocytes C2C12; assay: Viability of myocytes C2C12 after 24 h incubation (resazurin-based reagent); conditions: 50 µM
Experimental: Simultaneously with glucose consumption tests, the viability of myocytes C2C12 was examined due to their prolonged 24 h incubation with vanadium complexes.
Prolonged incubation of the cells with vanadium complexes, as was the case during the study of the effect on glucose consumption, more closely corresponds to the actual conditions of clinical use, also allowing for the identification of possible cytotoxic effects. […] A Resazurin-based reagent is reduced proportionally to the metabolic activity of cells as a result of the transference of electrons from NADPH+H^+, the amount of which strictly depends on glucose metabolism.

[7] = biological target: T5, CDC25A (Homo sapiens, UniProt P30304); assay: Inhibition of human recombinant non-tyrosine phosphatase CDC25A (3-O-methylfluorescein phosphate); assay type: biochemical
T5 construct: purchased Sigma-Aldrich
T5 sequence (P30304 1-524): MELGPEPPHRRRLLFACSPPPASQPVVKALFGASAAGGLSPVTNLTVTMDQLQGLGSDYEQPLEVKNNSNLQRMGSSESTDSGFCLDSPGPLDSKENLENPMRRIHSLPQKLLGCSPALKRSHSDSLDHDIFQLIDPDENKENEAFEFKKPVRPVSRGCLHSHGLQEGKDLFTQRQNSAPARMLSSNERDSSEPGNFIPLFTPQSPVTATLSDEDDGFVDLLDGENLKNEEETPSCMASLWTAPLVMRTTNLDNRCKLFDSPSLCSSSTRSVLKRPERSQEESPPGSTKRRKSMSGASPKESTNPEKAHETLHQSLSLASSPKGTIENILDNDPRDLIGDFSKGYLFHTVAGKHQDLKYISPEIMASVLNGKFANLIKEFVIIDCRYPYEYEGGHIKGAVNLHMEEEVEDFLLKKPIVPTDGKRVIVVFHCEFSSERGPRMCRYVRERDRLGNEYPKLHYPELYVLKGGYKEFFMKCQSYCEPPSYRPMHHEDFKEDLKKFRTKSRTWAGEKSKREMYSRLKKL
Experimental: as §2

[8] = test system: myocytes C2C12; assay: Scintillation proximity assay, transport of [14C]-deoxy-D-glucose into myocytes C2C12; assay type: cell-based, mouse; conditions: 50 µM; control solvent only
Experimental: The myocyte C2C12 cell line (ATCC CRL-1772), a subclone of myoblasts from mouse muscles, was cultured according to standard protocol in DMEM supplemented with 10% fetal calf serum, 100 IU/ml penicillin, and […] streptomycin at 37 °C in 5% CO2. Cells were pleated on a 96-well microplate and after reach confluence were differentiated in medium with 2% horse serum. Differentiation medium was changed every 72 h.
(§3) Scintillation proximity assay (SPA) is a method to measure the real-time accumulation of radiolabeled substrates by adherent cells with no filtration needed. Radioactivity concentrated closer to the scintillator embedded in the plastic bottom of each well provides a stronger signal than the radiolabeled substrate in the culture medium. Uptake of radiolabeled 2-deoxy-D-[U-14C]-glucose was conducted based on previous descriptions.
After 24 h incubation, the tested complexes were added. After 2 h incubation at 37 °C in 5% CO2, the medium was changed to low-glucose medium (1000 mg/L), and the tested complexes were added again, with further incubation for 4 h being conducted.
(§4) For cells proceeded as above, 2-deoxy-D-[U-14C]-glucose (250–350 mCi/mmol, NEC720A, PerkinElmer) solution in KRB with a total activity of 0.03 mCi was added to each well. […] Non-specific radioactivity was subtracted from each result (cpm). Two independent experiments with triplicates were conducted.

[9] = test system: adipocytes 3T3-L1; assay: Scintillation proximity assay, transport of [14C]-deoxy-D-glucose into adipocytes 3T3-L1; assay type: cell-based, mouse; conditions: 50 µM
Experimental: Adipocytes 3T3-L1 cell line (ATCC CRL-11605) derived from fibroblasts from mouse embryo tissue were cultured according to standard protocol in DMEM medium supplemented with 10% bovine calf serum, 100 IU/mL penicillin, and […] streptomycin at 37 °C in 5% CO2. Cells were seeded in 96-well poly-D-lysine-coated plates and cultured to reach confluency.
as §3
Adipocytes were washed and the medium was changed to the basal medium. After 24 h incubation, the tested complexes were added. After 2 h incubation at 37 °C in 5% CO2, the medium was changed to DMEM medium without glucose, with 0.1% BSA free from fatty acid, […] L-glutamine, and […] pyruvate. The tested complexes were added again, and further incubation for 4 h was conducted.
as §4

T3 sequence (P29350 whole entry): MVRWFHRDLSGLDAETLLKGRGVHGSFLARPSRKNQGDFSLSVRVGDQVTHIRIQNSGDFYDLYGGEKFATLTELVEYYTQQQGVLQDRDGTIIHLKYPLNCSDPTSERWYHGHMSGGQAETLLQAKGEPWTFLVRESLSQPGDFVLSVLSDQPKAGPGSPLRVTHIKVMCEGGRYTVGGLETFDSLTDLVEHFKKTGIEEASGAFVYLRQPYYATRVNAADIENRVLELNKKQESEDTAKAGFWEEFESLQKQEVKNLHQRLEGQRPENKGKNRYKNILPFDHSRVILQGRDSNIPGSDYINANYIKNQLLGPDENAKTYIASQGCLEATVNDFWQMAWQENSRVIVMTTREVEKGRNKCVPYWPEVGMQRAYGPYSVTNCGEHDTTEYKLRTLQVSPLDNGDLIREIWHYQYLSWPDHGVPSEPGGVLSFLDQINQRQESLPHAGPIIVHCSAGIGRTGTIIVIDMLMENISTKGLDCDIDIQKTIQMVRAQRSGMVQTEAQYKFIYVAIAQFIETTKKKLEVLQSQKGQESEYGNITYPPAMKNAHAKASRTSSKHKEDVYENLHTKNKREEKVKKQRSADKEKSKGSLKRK
Sequence of PP2A (P67775 whole entry): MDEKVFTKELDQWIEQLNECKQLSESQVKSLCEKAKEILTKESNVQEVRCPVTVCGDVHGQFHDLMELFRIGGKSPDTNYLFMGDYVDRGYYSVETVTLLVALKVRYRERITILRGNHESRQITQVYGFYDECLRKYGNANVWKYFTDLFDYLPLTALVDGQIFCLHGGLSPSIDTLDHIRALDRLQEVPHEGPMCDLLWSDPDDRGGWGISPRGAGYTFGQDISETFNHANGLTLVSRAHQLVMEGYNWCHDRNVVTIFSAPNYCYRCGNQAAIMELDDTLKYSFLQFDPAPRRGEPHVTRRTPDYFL

IC50 [1] [nM] | Inhibition of SHP2, percentage of inhibition of the control [1] [%] | IC50 [2] [nM] | Inhibition of LAR, percentage of inhibition of the control [2] [%] | IC50 [3] [nM] | Inhibition of SHP1, percentage of inhibition of the control [3] [%] | Log IC50 ± SD SHP1 ([3]; logarithm of IC50) | Inhibition of PP2A, percentage inhibition of control ± SD ([4]; 1 µM) [%] | Inhibition of PP2A, percentage inhibition of control ± SD ([4]; 10 µM) [%] | Inhibition of PTP1B, percentage of inhibition of the control [5] [%] | Log IC50 ± SD PTP1B ([5]; logarithm of IC50) | IC50 ([5]; read-out: IC50 PTP1B) [nM] | IC50 ([5]; read-out: IC50 for PTP1B) [nM] | Inhibition of CDC25A, percentage inhibition of control ± SD ([7]; 1 µM) [%] | Inhibition of CDC25A, percentage inhibition of control ± SD ([7]; 10 µM) [%] | Compound | Cell viability of myocytes C2C12, % of the control [6] [%] | Transport of [14C]-deoxy-D-glucose into C2C12 myocytes, % of the control [8] | Transport of [14C]-deoxy-D-glucose into 3T3-L1 adipocytes, % of control [9]
13 | 87 | 76 | 71 | 26 | 82 | −7.59 ± 0.04 | 44 ± 1 | 54 ± 9 | 79 | −6.97 ± 0.01 | 107 | 110 | 55 ± 3 | 68 ± 3 | CC(CC(=S)Nc1ccccc1)=NC(Cc1ccccc1)C(=O)[O][V](=[O])([Cl])[Cl] (stereo not shown) [VC059, [VOCl2(L2)]·0.5Et2O·1.5HCl] | 86 ± 6 | – | –
– | 88 | – | 69 | – | 84 | – | – | – | 79 | – | – | – | – | – | CC(CC(=S)Nc1ccccc1)=NC(CC(C)C)C(=O)[O][V](=[O])([Cl])[Cl] (stereo not shown) [VC070, [VOCl2(L3)]·0.5Et2O·3HCl] | – | 158 ± 10 % of control | 159 % of control
